Data published in patent US9896448B2, “Pyrimido[4,5-b]quinoline-4,5(3H, 10H)-dione derivatives” (Novartis AG, priority 2014, dated 2018).

Experiments:
CFTR-Y122X = CFTR-Y122X assay (dual reporter Hek293 cell lines, Renilla luminescence readthrough); format: cell-based, human; conditions: for Emax / AC50: nonsense mutation suppression, 24 h incubation, tested up to 100 μM; for Emax: 100% = 14 mM paromomycin, read-out: Amax; for AC50: Renilla luminescence
From the text: In particular, compounds of formula (I) act as nonsense mutation suppressors on frequent PTCs, e.g. on Y122X in the mRNA of the cystic fibrosis conductance regulator protein (CFTR). This can be determined in vitro, for example, using cell lines expressing GFP-CFTR-Y122X-Renilla constructs as described herein.
Activity of compounds of the present invention was examined in recombinant, dual reporter isogenic Hek293 cell lines (“CFTR-Y122X assay”). The engineered reporter constructs contained the 18 bp sequence strech corresponding to a common Y122X PTC mutation in CFTR class I mutant patients (see Sermet-Gaudelus, BMC Medicine, 2007, 5(5)). Instead of a tyrosine (Y) in position 122 of the CFTR protein a TGA stop codon interrupts the open reading frame (Y122X) of the corresponding mRNA. This TGA stop codon triplet (followed by the pyrimidine base cytosine) is permissive to aminoglycoside mediated translational readthrough which served as positive control for high throughput screening. A corresponding TAA stop codon variant and a wildtype non mutated construct was used for confirmation and counter screening. The CFTR sequence was sandwitched between an eGFP reporter, and a triple myc tag sequence fused to a full length Renilla reporter. All sequences, including an intron containing one positioned pre-eGFP (b-globin intron) were cloned in frame. The corresponding expression constructs were stably expressed in the isogenic HEK-R4 cell host (Invitrogen Incorp.) and selected by blasticidin resistance. The isogenic integration of the construct minimizes gene dose effects and improves assay reproducibility. Stably integrated single cell derived clones were selected and characterized for aminoglycoside mediated readthrough. […] Readthrough of Y122X accumulates an intracellular localized fusion protein approximately 65.5 kDa in size as controlled by western blot analysis and immunofluorescence using an anti-renilla antibody. The eGFP reporter pre-PTC mutation serves as visual control for genetic stability of the screening clones and minimizes protein degradation of small fusion protein amounts. In the assay, compound concentration was 10 μM. In miniaturized 1536 well format 2000 cells were dispensed in 4 μl/well and incubated for 24 h at 37° C., 5% CO2. 40 nl compounds were placed on the cells with control wells containing 1 ul Paramomycin and 14.4 mM final concentration. Compounds were incubated for 24 h. Renilla Glo substrate (2.5 ul) was added and plates were centrifuged and processed for luminescence measurement using various readers. Activity calculation was done using the equation: A1(%)=100*(S−NC)/(AC−NC) where AC, NC and S correspond to active controls (injection of Stimulation buffer=100% stimulation), neutral controls (buffer injection which […]) and screening samples (S). NC corresponds to 0% activity whereas AC is 100% activity (14 mM paromomycin). False positive artefacts were removed in confirmation and validation screening using the same assay format followed by counterscreening using the respective wildtype construct (w/o PTC mutation) cell model. Compounds were tested up to 100 μM compound concentration.

[1] = test system: alpha-L-Iduronidase W402X in Hurler patient derived fibroblast cells; assay: Hurler patient derived fibroblast cell cultures: restored alpha-L-iduronidase activity (W402X readthrough); format: cell-based; conditions: Homo sapiens, 192 h, 8 days incubation, highest concentration 20 uM; for Emax: 100% = 14 mM paromomycin, read-out: Amax
From the text: Activity of compounds of the present invention was examined in patient derived fibroblast cells. The genotyped cells were derived from the Coriell Institute (#GM00798) and contain an in frame homozygous TGG to TAG change at nucleotide 1293 of exon 9 which results in a W402X mutation. The W402X mutation is one of the most common Hurler syndromes causing loss of function mutation. Between 60-70% of genotyped patients contain either the Q70X and/or the W402X in mutation and are classified as severe MPSI patients. This TAG stop codon triplet is permissive to aminoglycoside mediated translational readthrough which served as activity control for compound testing. Readthrough of W402X restores alpha-L-Iduronidase activity which results in removal of lysosomal accumulated Glycosaminoglycan's. Iduronidase expression could neither be detected by Taqman PCR© nor by enzyme activity or ELISA methods without compound stimulation. Compounds were tested in concentration response mode. Therefore 5000 patient cells/40 ul/well in 384 well plates were used. Compound dilutions were derived from freshly prepared 10 mM compound stock solutions. Highest concentration was 20 uM and subsequently diluted 1: 3.16 (8 point dilutions, n=4). Final DMSO concentration was below 0.5% and tested to be without effect on cell viability, growth and readthrough. Cells were incubated for 8 days with one cell media and compound exchange at day 3. Thereafter cell media was removed and cells were lysed (0.4 M Sodiumformate, 0.1% NaN3, 0.9% NaCl, 0.2% Triton, pH 3.5). Restored alpha-L-iduronidase activity in cell lysates was measured with the fluorescent 4-MU iduronide substrate (5 ul of 0.4 mM 4 Methylumbelliferyl alpha-L-iduronide/well) after 48 h incubation. Paromomycin was used as reference control (14 mM=100% control).

Row | Compound | suppression, % of paromomycin reference activity (CFTR-Y122X; at the above dose ranges (up to 100 μM), paromomycin reference = 100%) | Emax (CFTR-Y122X; Homo sapiens, HEK293) | AC50 (CFTR-Y122X; Homo sapiens, HEK293) | Emax [1] | AC50 ([1]; 8 point dilutions) | EC50 (CFTR-Y122X; Homo sapiens, HEK293, clone selected for HTS assay development, read-out: EC50 (response of selected clone to aminoglycoside mediated readthrough))
1 | CC(C)c1nc2c(c(=O)c3ccccc3n2C)c(=O)n1-c1ccnn1C [2-isopropyl-10-methyl-3-(1-methyl-1H-pyrazol-5-yl)pyrimido[4,5-b]quinoline-4,5(3H,10H)-dione] | less than 5% |  |  |  |  | 
2 | CC(C)c1nc2c(c(=O)c3ccccc3n2C)c(=O)n1-c1cc[nH]n1 [Example 1.1, 2-isopropyl-10-methyl-3-(1H-pyrazol-3-yl)pyrimido[4,5-b]quinoline-4,5(3H,10H)-dione] |  | 14.8% | 6.7 µM | 7% |  | 
3 | CCCc1nc2c(c(=O)c3ccccc3n2C)c(=O)n1-c1ccccn1 [Example 1.2, 10-methyl-2-propyl-3-(pyridin-2-yl)pyrimido[4,5-b]quinoline-4,5(3H,10H)-dione] |  | 235% | 18 µM | 1% |  | 
4 | CCCc1nc2c(c(=O)c3ccccc3n2C)c(=O)n1-c1ccn(C)n1 [Example 1.3, 10-methyl-3-(1-methyl-1H-pyrazol-3-yl)-2-propylpyrimido[4,5-b]quinoline-4,5(3H,10H)-dione] |  | 202% | 31.8 µM | 8% |  | 
5 | CC(C)c1nc2c(c(=O)c3ccccc3n2C)c(=O)n1-c1ccn(C)n1 [Example 1.4, 2-isopropyl-10-methyl-3-(1-methyl-1H-pyrazol-3-yl)pyrimido[4,5-b]quinoline-4,5(3H,10H)-dione] |  | 133% | 13.6 µM | 21% |  | 
6 | CC(C)c1nc2c(c(=O)c3ccccc3n2C)c(=O)n1-c1ccsc1 [Example 1.5, 2-isopropyl-10-methyl-3-(thiophen-3-yl)pyrimido[4,5-b]quinoline-4,5(3H,10H)-dione] |  | 128% | 12.3 µM | 5% |  | 
7 | CC(C)c1nc2c(c(=O)c3ccccc3n2C)c(=O)n1-c1ccncc1 [Example 1.6, 2-isopropyl-10-methyl-3-(pyridin-4-yl)pyrimido[4,5-b]quinoline-4,5(3H,10H)-dione] |  | 14.9% | 2.9 µM | 5% |  | 
8 | CC(C)c1nc2c(c(=O)c3ccccc3n2C)c(=O)n1-c1ccccn1 [Example 1.7, 2-isopropyl-10-methyl-3-(pyridin-2-yl)pyrimido[4,5-b]quinoline-4,5(3H,10H)-dione] |  | 164% | 11.7 µM | 11% |  | 
9 | Cn1c2ccccc2c(=O)c2c(=O)n(-c3ccccn3)c(C3CCC3)nc21 [Example 1.8, 2-cyclobutyl-10-methyl-3-(pyridin-2-yl)pyrimido[4,5-b]quinoline-4,5(3H,10H)-dione] |  | 271% | 4.8 µM | 184% | 9.9 µM | 
10 | NC[C@@H]1O[C@H](O[C@H]2[C@@H](O)[C@H](O[C@@H]3[C@@H](O)[C@H](N)C[C@H](N)[C@H]3O[C@H]3O[C@H](CO)[C@@H](O)[C@H](O)[C@H]3N)O[C@@H]2CO)[C@H](N)[C@@H](O)[C@@H]1O [paromomycin, reference compound] |  |  |  |  |  | 1.5 mM
